Experimental data reported in PMC10606151, “The Functional Characteristics and Soluble Expression of Saffron CsCCD2” (International Journal of Molecular Sciences, 2023).

Key:
CsCCD2 (TRX-CsCCD2) [1] = target: T1, CsCCD2 (TRX-CsCCD2) (Crocus sativus, UniProt A0A075W695); assay: in vivo cleavage in zeaxanthin-producing E. coli, UPLC and UPLC-MS/MS of crocetin dialdehyde; assay type: cell-based; conditions: E. coli BL21(DE3) with pACCAR25ΔcrtX, 0.3 mM IPTG, 16 °C, 24 h; product crocetin dialdehyde
T1 construct: gene CCD2; CsCCD2 in pET32a, N-terminal TrxA-6xHis-thrombin-S tag fusion, tags kept; synthetic gene with synonymous G1179T; E. coli BL21(DE3) accumulating carotenoids
T1 sequence (A0A075W695 entry or part of it): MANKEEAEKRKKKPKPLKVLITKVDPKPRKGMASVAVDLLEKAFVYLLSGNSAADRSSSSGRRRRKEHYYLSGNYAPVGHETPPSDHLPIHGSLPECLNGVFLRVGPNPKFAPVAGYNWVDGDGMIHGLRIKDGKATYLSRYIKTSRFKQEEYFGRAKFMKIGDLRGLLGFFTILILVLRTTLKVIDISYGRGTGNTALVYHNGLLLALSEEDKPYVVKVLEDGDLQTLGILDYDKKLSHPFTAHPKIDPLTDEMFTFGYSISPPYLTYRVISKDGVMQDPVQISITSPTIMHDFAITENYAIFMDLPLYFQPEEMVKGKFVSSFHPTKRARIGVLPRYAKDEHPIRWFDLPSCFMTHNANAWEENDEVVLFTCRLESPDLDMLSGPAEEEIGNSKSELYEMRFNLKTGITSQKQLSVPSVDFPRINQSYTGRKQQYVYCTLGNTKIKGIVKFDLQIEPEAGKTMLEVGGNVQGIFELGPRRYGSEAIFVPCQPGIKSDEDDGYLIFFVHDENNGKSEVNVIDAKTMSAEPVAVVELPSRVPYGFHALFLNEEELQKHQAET

CsCCD2 (TRX-CsCCD2) [2] = target: T1, CsCCD2 (TRX-CsCCD2); assay: in vivo cleavage in β-carotene-producing E. coli, UPLC and UPLC-MS/MS of crocetin dialdehyde; assay type: cell-based; conditions: E. coli BL21(DE3) with pACCAR16Δcrt, 0.3 mM IPTG, 16 °C, 24 h; product named crocetin dialdehyde

CC1=C(/C=C/C(C)=C/C=C/C(C)=C/C=C/C=C(C)/C=C/C=C(C)/C=C/C2=C(C)C[C@@H](O)CC2(C)C)C(C)(C)C[C@H](O)C1 [zeaxanthin]
in vivo cleavage in zeaxanthin-producing E. coli, UPLC and UPLC-MS/MS of croceti (CsCCD2 (TRX-CsCCD2) [1]): These results revealed that TRX-CsCCD2 cleaved zeaxanthin, β-carotene, and lycopene

CC1=C(/C=C/C(C)=C/C=C/C(C)=C/C=C/C=C(C)/C=C/C=C(C)/C=C/C2=C(C)CCCC2(C)C)C(C)(C)CCC1 [β-carotene]
in vivo cleavage in β-carotene-producing E. coli, UPLC and UPLC-MS/MS of croceti (CsCCD2 (TRX-CsCCD2) [2]): These results revealed that TRX-CsCCD2 cleaved zeaxanthin, β-carotene, and lycopene
